Measured values from publication PMC10819888, “Benzimidazole-Based Derivatives as Apoptotic Antiproliferative Agents: Design, Synthesis, Docking, and Mechanistic Studies” (Molecules, 2024).

Key:
[1] = target: BRAF^V600E; experiment: biochemical
[2] = test system: K-562; experiment: NCI-60 five-dose assay; assay type: cell-based, human; conditions: K-562 (Leukemia), 48 h
[3] = test system: MOLT-4; experiment: NCI-60 five-dose assay; assay type: cell-based, human; conditions: MOLT-4 (Leukemia), 48 h
[4] = test system: EKVX; experiment: NCI-60 five-dose assay; assay type: cell-based, human; conditions: EKVX (Non-Small Cell Lung Cancer), 48 h
[5] = test system: HOP-92; experiment: NCI-60 five-dose assay; assay type: cell-based, human; conditions: HOP-92 (Non-Small Cell Lung Cancer), 48 h
[6] = test system: NCI-H23; experiment: NCI-60 five-dose assay; assay type: cell-based, human; conditions: NCI-H23 (Non-Small Cell Lung Cancer), 48 h
[7] = test system: NCI-H460; experiment: NCI-60 five-dose assay; assay type: cell-based, human; conditions: NCI-H460 (Non-Small Cell Lung Cancer), 48 h
[8] = test system: NCI-H522; experiment: NCI-60 five-dose assay; assay type: cell-based, human; conditions: NCI-H522 (Non-Small Cell Lung Cancer), 48 h
[9] = test system: HT29; experiment: NCI-60 five-dose assay; assay type: cell-based, human; conditions: HT29 (Colon Cancer), 48 h
[10] = test system: SF-268; experiment: NCI-60 five-dose assay; assay type: cell-based, human; conditions: SF-268 (CNS Cancer), 48 h
[11] = test system: SF-539; experiment: NCI-60 five-dose assay; assay type: cell-based, human; conditions: SF-539 (CNS Cancer), 48 h
[12] = test system: LOX IMVI; experiment: NCI-60 five-dose assay; assay type: cell-based, human; conditions: LOX IMVI (Melanoma), 48 h
[13] = test system: MDA-MB-435; experiment: NCI-60 five-dose assay; assay type: cell-based, human; conditions: MDA-MB-435 (Melanoma), 48 h
[14] = test system: SK-MEL-2; experiment: NCI-60 five-dose assay; assay type: cell-based, human; conditions: SK-MEL-2 (Melanoma), 48 h
[15] = test system: IGROV1; experiment: NCI-60 five-dose assay; assay type: cell-based, human; conditions: IGROV1 (Ovarian Cancer), 48 h
[16] = test system: OVCAR-8; experiment: NCI-60 five-dose assay; assay type: cell-based, human; conditions: OVCAR-8 (Ovarian Cancer), 48 h
[17] = test system: CAKI-1; experiment: NCI-60 five-dose assay; assay type: cell-based, human; conditions: CAKI-1 (Renal Cancer), 48 h
[18] = test system: RXF 393; experiment: NCI-60 five-dose assay; assay type: cell-based, human; conditions: RXF 393 (Renal Cancer), 48 h
[19] = test system: TK-10; experiment: NCI-60 five-dose assay; assay type: cell-based, human; conditions: TK-10 (Renal Cancer), 48 h
[20] = test system: UO-31; experiment: NCI-60 five-dose assay; assay type: cell-based, human; conditions: UO-31 (Renal Cancer), 48 h
[21] = test system: PC-3; experiment: NCI-60 five-dose assay; assay type: cell-based, human; conditions: PC-3 (Prostate Cancer), 48 h
[22] = test system: MDA-MB-468; experiment: NCI-60 five-dose assay; assay type: cell-based, human; conditions: MDA-MB-468 (Breast Cancer), 48 h
[23] = test system: Non-Small Cell Lung Cancer subpanel; experiment: NCI-60 five-dose assay, subpanel; assay type: cell-based, human
[24] = test system: Colon Cancer subpanel; experiment: NCI-60 five-dose assay, subpanel; assay type: cell-based, human
[25] = test system: CNS Cancer subpanel; experiment: NCI-60 five-dose assay, subpanel; assay type: cell-based, human
[26] = Homo sapiens, read-out: GI50 Conc. per Cell Line
[27] = Homo sapiens, read-out: LC50 (the source's name)

Chain of BRAF^V600E (P28028 whole entry V585E): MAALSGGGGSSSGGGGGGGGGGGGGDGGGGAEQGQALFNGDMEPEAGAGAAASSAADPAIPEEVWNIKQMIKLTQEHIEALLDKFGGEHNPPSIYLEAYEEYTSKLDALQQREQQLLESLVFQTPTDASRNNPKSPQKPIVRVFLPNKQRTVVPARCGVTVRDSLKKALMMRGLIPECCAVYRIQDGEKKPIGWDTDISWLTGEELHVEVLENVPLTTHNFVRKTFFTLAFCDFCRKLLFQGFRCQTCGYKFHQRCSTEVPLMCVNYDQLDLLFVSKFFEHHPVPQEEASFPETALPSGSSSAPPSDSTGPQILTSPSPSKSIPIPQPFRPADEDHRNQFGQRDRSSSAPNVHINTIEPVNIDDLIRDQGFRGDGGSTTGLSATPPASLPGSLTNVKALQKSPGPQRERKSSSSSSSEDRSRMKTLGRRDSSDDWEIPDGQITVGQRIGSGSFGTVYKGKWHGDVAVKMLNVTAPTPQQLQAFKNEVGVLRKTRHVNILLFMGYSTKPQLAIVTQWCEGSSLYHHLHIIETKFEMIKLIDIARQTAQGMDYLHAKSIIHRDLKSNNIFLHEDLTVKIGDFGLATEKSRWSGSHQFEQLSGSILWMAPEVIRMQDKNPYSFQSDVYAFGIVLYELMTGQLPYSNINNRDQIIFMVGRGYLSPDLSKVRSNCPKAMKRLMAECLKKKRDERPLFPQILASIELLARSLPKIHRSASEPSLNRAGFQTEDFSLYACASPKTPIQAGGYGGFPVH

SMILES: COc1cc(/C=N/NC(=O)c2ccc3[nH]c(-c4ccc(Cl)cc4)nc3c2)cc(OC)c1OC [Compound 4h, N′-(3,4,5-Trimethoxybenzylidene)-2-(4-chlorophenyl)-1H-benzimidazole-5 carbohydrazide]
- IC50 [1]: 0.82 ± 0.06 µM

SMILES: O=C(N/N=C/c1ccc(O)cc1)c1ccc2[nH]c(-c3ccc(Cl)cc3)nc2c1 [Compound 4i, N′-(4-Hydroxybenzylidene)-2-(4-chlorophenyl)-1H-benzimidazole-5-carbohydrazide]
- melting point: 263 to 265 °C

SMILES: CCn1c(-c2ccc3[nH]c(-c4ccc(Cl)cc4)nc3c2)n[nH]c1=S [Compound 6, 4-ethyl-5-(2-(4-chlorophenyl)-1H-benzimidazol-5-yl)-2,4-dihydro-3H-1,2,4triazole-3-thione]
- melting point: 292 to 294 °C

SMILES: O=C(NN=Cc1ccc(F)cc1)c1ccc2[nH]c(-c3ccc(Cl)cc3)nc2c1 [Compound 4d, N′-(4-Fluorobenzylidene)-2-(4-chlorophenyl)-1H-benzimidazole-5-carbohydrazide]
- melting point: 285 to 287 °C

SMILES: O=C(NN=Cc1ccc(Cl)cc1Cl)c1ccc2[nH]c(-c3ccc(Cl)cc3)nc2c1 [Compound 4f, N′-(2,4-Dichlorobenzylidene)-2-(4-chlorophenyl)-1H-benzimidazole-5-carbohydrazide]
- melting point: 294 to 297 °C

SMILES: O=C(NN=Cc1ccc([N+](=O)[O-])cc1)c1ccc2[nH]c(-c3ccc(Cl)cc3)nc2c1 [Compound 4c, N′-(4-Nitrobenzylidene)-2-(4-chlorophenyl)-1H-benzimidazole-5-carbohydrazide]
- GI50 ([2]; Homo sapiens, K562, read-out: GI50 Conc. per Cell Line): 0.499 µM
- CC50 ([2]; Homo sapiens, K562, read-out: LC50 (the source's name)): 54.6 µM
- TGI [2]: 8.44 µM
- GI50 [3, 26]: 0.421 µM
- CC50 [3, 27]: > 100 µM
- TGI [3]: 3.85 µM
- TGI [4]: 21.20 µM
- GI50 [4, 26]: 3.19 µM
- CC50 [4, 27]: > 100 µM
- TGI [5]: 7.52 µM
- GI50 [5, 26]: 0.985 µM
- GI50 [6, 26]: 1.85 µM
- CC50 [6, 27]: 67.6 µM
- TGI [6]: 11.50 µM
- GI50 [7, 26]: 2.1 µM
- TGI [7]: 4.49 µM
- GI50 [8, 26]: 3.05 µM
- CC50 [8, 27]: > 100 µM
- TGI [8]: 11.70 µM
- TGI [9]: >100 µM
- GI50 ([9]; Homo sapiens, HT-29, read-out: GI50 Conc. per Cell Line): 3.02 µM
- CC50 ([9]; Homo sapiens, HT-29, read-out: LC50 (the source's name)): > 100 µM
- GI50 [10, 26]: 4.97 µM
- CC50 [10, 27]: > 100 µM
- TGI [10]: 24.30 µM
- GI50 [11, 26]: 2.73 µM
- CC50 [11, 27]: 33.8 µM
- TGI [11]: 10.10 µM
- GI50 [12, 26]: 1.34 µM
- CC50 [12, 27]: 7.74 µM
- TGI [12]: 3.22 µM
- GI50 [13, 26]: 3.57 µM
- CC50 [13, 27]: 47.6 µM
- TGI [13]: 12.20 µM
- GI50 [14, 26]: 5.1 µM
- TGI [14]: 21.90 µM
- GI50 ([15]; Homo sapiens, IGROV-1, read-out: GI50 Conc. per Cell Line): 3.04 µM
- CC50 ([15]; Homo sapiens, IGROV-1, read-out: LC50 (the source's name)): 52.4 µM
- TGI [15]: 11.40 µM
- GI50 [16, 26]: 2.89 µM
- CC50 [16, 27]: > 100 µM
- TGI [16]: 13.70 µM
- TGI [17]: 16.10 µM
- GI50 [17, 26]: 3.49 µM
- CC50 [17, 27]: 85.4 µM
- GI50 [18, 26]: 2.03 µM
- CC50 [18, 27]: 34 µM
- TGI [18]: 7.07 µM
- GI50 [19, 26]: 8.99 µM
- CC50 [19, 27]: > 100 µM
- TGI [19]: 40.23 µM
- GI50 [20, 26]: 6.05 µM
- CC50 [20, 27]: > 100 µM
- TGI [20]: 38.30 µM
- GI50 [21, 26]: 0.42 µM
- TGI [21]: 15.30 µM
- GI50 [22, 26]: 1.97 µM
- TGI [22]: 4.79 µM
- GI50 ([23]; Homo sapiens, Non-Small Cell Lung Cancer, average sensitivity of all subpanel cell lines, read-out: GI50 Subpanel MID b): 3.52 µM
- GI50 Selectivity Ratio (MID a/MID b) ([23]; Non-Small Cell Lung Cancer subpanel): 0.93
- GI50 Selectivity Ratio (MID a/MID b) ([24]; Colon Cancer subpanel): 1.30
- GI50 ([24]; Homo sapiens, Colon Cancer, average sensitivity of all subpanel cell lines, read-out: GI50 Subpanel MID b): 2.53 µM
- GI50 Selectivity Ratio (MID a/MID b) ([25]; CNS Cancer subpanel): 0.81
- GI50 ([25]; Homo sapiens, CNS Cancer, average sensitivity of all subpanel cell lines, read-out: GI50 Subpanel MID b): 4.05 µM
- IC50 [1]: 0.31 ± 0.07 µM

SMILES: CN(C)c1ccc(C=NNC(=O)c2ccc3[nH]c(-c4ccc(Cl)cc4)nc3c2)cc1 [Compound 4b, N′-(4-(Dimethylamino)benzylidene)-2-(4-chlorophenyl)-1H-benzimidazole-5-carbohydrazide]
- melting point: 283 to 285 °C
